# Source: patent US10709769B2, “Use of endostatin peptides for the treatment of fibrosis” (University of Pittsburgh—Of the Commonwealth System of …, priority 2009, dated 2020)
# Key:
# [1] = tested on: human primary lung fibroblasts; assay: FN and Col1α1 western blot in TGF-β-treated primary lung fibroblasts; type: cell-based; settings: normal human lung fibroblasts; TGF-β 10 ng/ml 24 h, then 5 μg/ml rE or peptide 48 h; vs TGF-β alone
# Method: Human primary lung and skin fibroblasts were cultured. The explanted lungs of normal organ donors, patients with SSc or IPF, and clinically involved skin of SSc patients, a morphea patient and healthy donors were used for primary fibroblast culture. Approximately 2-cm pieces of peripheral lung and skin were minced and fibroblasts were cultured in Dulbecco's modified Eagle's medium (DMEM; Mediatech, Herndon, Va.) supplemented with 10% FBS, penicillin, streptomycin, and anti-mycotic agent, as previously described (Feghali et al., Arthritis Rheum 1999; 42:1451-7). All the cells were used between passages 3-6.
# Cellular lysates were obtained from cultured fibroblasts as previously described (Pilewski et al., Am J Pathol 2005; 166:399-407). Briefly, 2.0×10^5 primary fibroblasts were cultured in 35-mm wells in 0.5% FBS-containing medium supplemented with 10 ng/ml of human recombinant TGF-β or PBS as vehicle control for 24 h, following which 5 μg/ml of human rE, endostatin peptides (E1-E4), or DMSO (vehicle) was added for 48 h. In some experiments, endostatin peptides were used without TGF-β stimulation. Cellular lysates were analyzed by western blot. Signals were detected following incubation with horseradish peroxidase-conjugated secondary antibody and chemiluminescence (Perkin Elmer Life Sciences, Inc., Boston, Mass.). The intensity of individual bands with expected molecular sizes was semi-quantitatively analyzed using the image/J® software available at on the internet (/rsb.info.nih.gov/ij/index.html), and normalized to individual GAPDH intensity.
# To evaluate whether endostatin modulates production of ECM components in fibroblasts, FN and Col1α1 expression was examined in normal human lung fibroblasts by western blot analysis. Cells were treated with 5 µg/ml rE for 48 h with or without pre-stimulation with human TGF-β for 24 h. […] To define the functional domain of endostatin that mediates its inhibitory effect, four different peptides were synthesized corresponding to different regions of endostatin (Table 1).
# [2] = tested on: fibrotic lung fibroblasts from patients with IPF; assay: FN and Col1α1 in fibrotic lung fibroblasts without TGF-β stimulation, western blot; type: cell-based, human
# Source text: FIGS. 1A-1F. ECM production in recombinant endostatin- and endostatin-derived peptide-treated fibroblasts in combination with TGF-β stimulation. A: FN and Col1α1 expression in human normal lung fibroblasts (NL) treated with vehicle (V), rE alone, or both with prior TGF-β stimulation. Proteins were detected western blot. GAPDH was used as a loading control for lysates. B: FN and Col1α1 expression of endostatin polypeptide-treated lung fibroblasts following TGF-β stimulation in primary pulmonary fibroblasts from a healthy control, a patient with SSc, and a patient with IPF. C: Graphical summary of FN and Col1α1 expression in lung fibroblasts obtained using fibroblasts from 4 healthy controls (NL), 3 patients with SSc, and 3 patients with IPF. Intensity of bands was normalized to that of GAPDH and expressed as a ratio to Vehicle (V). Paired-t test was used for statistical analysis. * P<0.04, ** P<0.01. D: Representative result of FN and Col1α1 levels in human skin fibroblasts obtained from a patient with morphea and a patient with SSc. E: Representative result of FN and Col1α1 expression in fibrotic fibroblasts obtained from a patients with IPF treated with V, 5 μg/ml of rE, or endostatin polypeptides alone (left). IPF fibroblasts were treated with different concentrations (5, 10, and 20 μg/ml) of E4. DMSO (V) was added in a volume equivalent to that in the lane corresponding to 20 μg/ml of E4 (right). […]
# Cellular lysates were obtained from cultured fibroblasts as previously described (Pilewski et al., Am J Pathol 2005; 166:399-407). […] Cellular lysates were analyzed by western blot. Signals were detected following incubation with horseradish peroxidase-conjugated secondary antibody and chemiluminescence (Perkin Elmer Life Sciences, Inc., Boston, Mass.). The intensity of individual bands with expected molecular sizes was semi-quantitatively analyzed using the image/J® software available at on the internet (/rsb.info.nih.gov/ij/index.html), and normalized to individual GAPDH intensity. […]
# [3] = tested on: lysyl oxidase (LOX); assay: TGFβ-induced LOX production in primary human lung fibroblasts; type: cell-based; settings: normal lung fibroblasts passage 4, TGF-β followed 30 minutes later by E4, 48 hrs
# Method: FIG. 13. E4 reduces fibrosis in vitro by blocking TGFβ-induced LOX production in primary human lung fibroblasts. Normal lung fibroblasts in passage 4 were treated with vehicle, E4, TGFbeta, or TGFbeta followed 30 min. later by E4. Media conditioned by the fibroblasts were analyzed using Western blot analysis after 48 hour. Lane 1: Vehicle (DMSO); Lane 2: E-4; Lane 3: TGF 3; Lane 4: TGF 3 followed by E4.
# E4-mediated reduction of LOX was detected also was detected in vitro. Normal lung fibroblasts in passage 4 were treated with vehicle, E4, TGFβ, or TGF-β followed 30 minutes later by E4 (FIG. 13). Media conditioned by the fibroblasts were analyzed using western blot analysis after 48 hrs.
# [4] = tested on: MMP-2; assay: MMP-2 gelatin zymography in primary human lung fibroblasts; type: cell-based
# Method: FIG. 14A-14B. A. E4 reduces fibrosis in vitro by inducing MMP-2 activity in primary human lung fibroblasts, thus resulting in increased degradation of collagen and other matrix proteins. Digital image of a gelatin zymography gel showing increased MMP-2 activity when primary human lung fibroblasts are treated with E-4 following TGFβ (lane 4). Lane 1: Vehicle (DMSO); Lane 2: E-4; Lane 3: TGF 3; Lane 4: TGF 3 followed by E4. B. Digital image showing that both total and active MMP-2 levels are increased in cells treated with TGFbeta and E-4.
# [5] = tested on: ID1; assay: ID1 mRNA real-time PCR in primary human lung fibroblasts; type: cell-based
# Method: FIG. 15. E4 reduces fibrosis in vitro by inducing expression of ID1, an inhibitor of TGF β, in primary human lung fibroblasts. Real-time PCR analysis was performed to determine the ID1 mRNA levels under the indicated conditions.
# [6] = no TGF-β, 5, 10 and 20 μg/ml, vs vehicle control
substance,measurement,setting,value
"H-^133SYCETWRTEAPSATGQASSLLGGRLLGQSAASCHHAYIVLCIENSFMT^180-CONH2 (H-SYCETWRTEAPSATGQASSLLGGRLLGQSAASCHHAYIVLCIENSFMT-NH2; cysteine pairing not given here; UniProt P39060 1704-1751, looked up, fragment) [E4, amino acids 133-180 of human endostatin; differs from E3 by the presence of a carboxy-terminal amide]",FN and Col1α1 levels/production,[1],significantly suppressed
same,FN and Col1α1 levels,"[2]; no TGF-β stimulation, peptide alone",decreased
same,Col1α1 levels,[2]; [6],dose-dependently reduced
same,FN levels,[2]; [6],modest effect
same,level of LOX (western blot of conditioned media),[3],significantly reduced
same,MMP-2 activity,"[4]; E-4 following TGFβ, gelatin zymography",increased
same,total and active MMP-2 levels,[4]; cells treated with TGFbeta and E-4,increased
same,levels of inhibitor of differentiation (ID)-1,[5],increases
